According to paper PMC11239830, “Synthetic macrolides overcoming MLSBK-resistant pathogens” (Cell Discovery, 2024):
Converted amounts (≈) assume the structure as drawn. Where two headings read alike, the source gives them in different places.

Legend:
[1] = system: human ribosome; design: method as in PMID 32601485; details: read-out: IC50, inhibition on human ribosome; cited from earlier work
[2] = system: S. pyogenes; assay: MIC, broth microdilution; assay type: cell-based, Streptococcus pyogenes
Procedure, shortened: (§1)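 Minimum inhibitory concentrations were measured by broth microdilution following CLSI guidelines. Plates were incubated at 37 °C for 16–20 h before results were read and recorded, and each determination was repeated at least three times.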

[3] = system: S. pneumoniae; assay: MIC, broth microdilution; assay type: cell-based, Streptococcus pneumoniae
Procedure, shortened: as §1

[4] = system: M. catarrhalis; assay: MIC, broth microdilution; assay type: cell-based, Moraxella catarrhalis; details: Moraxella catarrhalis; M. catarrhalis 13L332, Ery-S; read-out: MIC
Method: MICs were determined by the microdilution method according to the Clinical and Laboratory Standards Institute guidelines. Briefly, the stock solution of compounds and the reference antibiotics were diluted 2-fold in sterile 96-well plates with cation-adjusted Mueller-Hinton broth, and mixed with CAMHB-containing bacteria to give a final inoculum of 5 × 10^5 CFU/mL for broth microdilution experiments. […] Finally, the 96-well plates were incubated at 37 °C for 16–20 h to observe and record the results. The lowest concentration at which no bacterial growth could be observed visually was identified as the MICs of the compounds. The assay for MICs was replicated at least three times.

[5] = In vivo pharmacokinetic study; design: species or system SD rats; details: SD (Sprague-Dawley), rat, iv, plasma
Method: The SD rats were fasted overnight and dosed i.v. at a dose of 5 mg/kg in a solution of DMSO/PEG 400/water (5%/24%/71%). The whole blood was collected into tubes containing sodium heparin at 0.083 h, 0.25 h, 0.5 h, 1 h, 2 h, 4 h, 8 h and 24 h after dosing. After centrifugation of 6000 rpm for 10 min at 4 °C, plasma samples were transferred into 1.5 mL tubes and stored at –20 °C. Prior to analysis, the samples were thawed on ice. An amount of 50 μL of each plasma sample was added to a mixture of 50 μL of propranolol (300 ng/mL) and 100 μL of acetonitrile and centrifuged at 12,000 rpm at 4 °C for 10 min. The supernatant was diluted and analyzed by LC-MS/MS. The liquid chromatography was conducted on a Thermo Scientific Q Exactive HF-X (ThermoFisher Scientific, USA) instrument, employing an ACQUITY UPLC BEH C18 Column with dimensions of 130 Å, 1.7 µm, 2.1 mm × 100 mm. The liquid phase method employed gradient elution with mobile phases consisting of acetonitrile and an 0.1% aqueous formic acid solution. Mass spectrometry was conducted in positive ion mode. The quantification of drug concentration in plasma samples was performed using the internal standard method, and the obtained pharmacokinetic parameters were calculated using Phoenix WinNonlin software.

[6] = system: H. influenzae; assay: MIC, broth microdilution; assay type: cell-based, Haemophilus influenzae; details: Haemophilus influenzae, ATCC49247, H. influenzae ATCC49247, Azi-S; read-out: MIC
Procedure, shortened: as §1

[7] = system: WT S. aureus ribosomes; assay: PURE in vitro translation inhibition assay; assay type: biochemical, Staphylococcus aureus; details: mean ± SD
Method: (§2) To validate the in vitro activity of our compounds, we employed an in vitro reconstituted E. coli Protein synthesis Using a Recombinant Elements (PURE) translation system, substituting E. coli ribosomes with the purified S. aureus ribosomes.
(§3) 5 μL of PURE reaction mix that translates a gene encoding the Nanoluc luciferase was set up in the presence or absence of tested compounds. Protein synthesis was initiated by incubating reactions at 37 °C for 60 min and stopped by placing on ice for 5 min. Luciferase activity was quantified using the Nano-Glo luciferase assay system and read on a GloMax 20/20 luminometer (Promega, USA). For each compound, the in vitro translation inhibition assay was performed in three biological triplicates over a range of concentrations from 0.001 μM to 1000 μM. A compound-free control was used to normalize luminescence measurements. The calculated luminescence percentages were plotted against compound concentrations on a semilog scale using GraphPad Prism.

[8] = system: 15B196 S. aureus ribosomes (A2058-methylated); assay: PURE in vitro translation inhibition assay; assay type: biochemical, Staphylococcus aureus; details: mean ± SD
Method: as §2, §3

[9] = CCK-8 assay for cytotoxicity; assay type: cell-based, human; details: human, HEK293T cells, HEK293T cell viability
Method: HepG2 cells (6 × 10^3) and HEK293T cells (4 × 10^3) were seeded into 96-well plates in 90 μL of DMEM medium containing 10% FBS per well. […] After overnight incubation, the test compound stock solution was diluted with DMEM medium containing 10% FBS to every target concentration, and 10 μL of each was added to each well. Three parallel experiments were set up for each compound. After incubation for 48 h, 10 μL of cell counting kit-8 (CCK-8) reagent was added to each well in sequence according to the manufacturer’s instructions. […] This experiment was independently repeated three times. The data were processed by GraphPad Prism.

[10] = system: S. aureus; assay: MIC, broth microdilution; assay type: cell-based, Staphylococcus aureus; details: Staphylococcus aureus, read-out: MIC
Procedure, shortened: as §1

[11] = Streptococcus pyogenes, S. pyogenes 12-206, c-ermTR, read-out: MIC
[12] = Streptococcus pneumoniae, ATCC49619, S. pneumoniae ATCC49619, Ery-S, read-out: MIC
[13] = Streptococcus pneumoniae, S. pneumoniae 07P390, c-ermB, read-out: MIC

CC[C@H]1OC(=O)[C@H](C)[C@@H](OC(=O)NCCCCCCC#Cc2ccc3c(=O)c(C(=O)O)c[nH]c3c2)[C@H](C)[C@@H](O[C@@H]2O[C@H](C)C[C@H](N(C)C)[C@H]2O)[C@](C)(OC)C[C@@H](C)C(=O)[C@H](C)[C@H]2NC(=O)O[C@@]21C (hydrate or solvate) [88i]
melting point: 162.9 to 166 °C

CC[C@H]1OC(=O)[C@H](C)[C@@H](OC(=O)NCCCCOCCC#Cc2ccc3c(=O)c(C(=O)O)cn(C)c3c2)[C@H](C)[C@@H](O[C@@H]2O[C@H](C)C[C@H](N(C)C)[C@H]2O)[C@](C)(OC)C[C@@H](C)C(=O)[C@H](C)[C@H]2NC(=O)O[C@@]21C (hydrate or solvate) [96g]
melting point: 172.1 to 173.5 °C

COC(=O)c1c(OC)cc2cc3c(c(O)c2c1C)C(=O)[C@]1(OC)C(=O)C=C(OC)[C@@H](O)[C@]1(O)C3=O [TcmX, tetracenomycin X]
IC50 [1]: 10 µM

CCOC(=O)c1cn(C)c2cc(C#CCCCCCCNC(=O)O[C@H]3[C@H](C)[C@@H](O[C@@H]4O[C@H](C)C[C@H](N(C)C)[C@H]4O)[C@](C)(OC)C[C@@H](C)C(=O)[C@H](C)[C@H]4NC(=O)O[C@]4(C)[C@@H](CC)OC(=O)[C@@H]3C)ccc2c1=O [88h]
MIC [2, 11]: 2 µg/mL (≈ 2.01 µM) | MIC [3, 12]: ≤ 0.008 µg/mL | MIC ([3]; Streptococcus pneumoniae, S. pneumoniae 05O173, c-ermB, mef, read-out: MIC): 64 µg/mL (≈ 64.3 µM) | MIC [3, 13]: 0.5 µg/mL (≈ 0.502 µM) | MIC [4]: 4 µg/mL (≈ 4.02 µM) | Cmax ([5]; male SD rats, i.v. 5 mg/kg): 2650 ± 250 ng/mL | MRT ([5]; male SD rats, i.v. 5 mg/kg): 1.64 ± 0.665 h | Tmax ([5]; male SD rats, i.v. 5 mg/kg): 4.8 min | half-life ([5]; male SD rats, i.v. 5 mg/kg): 2.63 ± 1.3 h | AUC(0-inf) ([5]; male SD rats, i.v. 5 mg/kg, mean ± SD, n 3): 1790 ± 90 ng·h/mL | AUC(0-t) ([5]; male SD rats, i.v. 5 mg/kg, read-out: AUC0-24): 1760 ± 100 ng·h/mL | clearance ([5]; male, 5 mg/kg): 46.5 mL/min/kg | MIC [6]: 32 µg/mL (≈ 32.2 µM)

CCC1OC(=O)C(C)C(OC(=O)NCCCOCCC#Cc2ccc3c(=O)c(C(=O)O)cn(C4CC4)c3c2)C(C)C(OC2OC(C)CC(N(C)C)C2O)C(C)(OC)CC(C)C(=NOC)C(C)C2OC(=O)OC12C (stereo not shown) (hydrate or solvate) [72c]
melting point: 144.6 to 145.2 °C

CCOC(=O)c1cn(C)c2cc(C#CCCCCCCNC(=O)O[C@H]3[C@H](C)[C@@H](O[C@@H]4O[C@H](C)C[C@H](N(C)C)[C@H]4O)[C@](C)(OC)C[C@@H](C)C(=O)[C@H](C)[C@H]4NC(=O)O[C@]4(C)[C@@H](CC)OC(=O)[C@@H]3C)ccc2c1=O (hydrate or solvate) [88h]
melting point: 141.1 to 142 °C

CC[C@H]1OC(=O)[C@H](C)[C@@H](OC(=O)NCCCCCCC#Cc2ccc3c(=O)c(C(=O)O)cn(C)c3c2)[C@H](C)[C@@H](O[C@@H]2O[C@H](C)C[C@H](N(C)C)[C@H]2O)[C@](C)(OC)C[C@@H](C)C(=O)[C@H](C)[C@H]2NC(=O)O[C@@]21C (hydrate or solvate) [MCX-219]
melting point: 179.5 to 180.3 °C

CC[C@H]1OC(=O)[C@H](C)[C@@H](O[C@H]2C[C@@](C)(OC)[C@@H](O)[C@H](C)O2)[C@H](C)[C@@H](O[C@@H]2O[C@H](C)C[C@H](N(C)C)[C@H]2O)[C@](C)(O)C[C@@H](C)C(=O)[C@H](C)[C@@H](O)[C@]1(C)O [erythromycin, reference compound]
IC50 [7]: 0.18 ± 0.03 µM | IC50 [8]: > 10 µM | MIC ([2]; S. pyogenes 01-968, Clinical, i-ermB): 1 µg/mL (≈ 1.36 µM) | MIC ([2]; S. pyogenes 12-207, Clinical, mef): 16 µg/mL (≈ 21.8 µM) | MIC ([2]; S. pyogenes 21K003, Clinical, mef): 16 µg/mL (≈ 21.8 µM) | MIC ([3]; S. pneumoniae 21Q352, Clinical, i-MLSB): 64 µg/mL (≈ 87.2 µM) | MIC ([3]; S. pneumoniae 21Q353, Clinical, i-MLSB): 32 µg/mL (≈ 43.6 µM) | MIC ([3]; S. pneumoniae 21X435, Clinical): 0.03 µg/mL (≈ 0.0409 µM) | MIC ([3]; S. pneumoniae ATCC49619): 0.03 µg/mL (≈ 0.0409 µM) | CC50 at 48 h [9]: > 100 µM

CC[C@H]1OC(=O)[C@H](C)[C@@H](OC(=O)NCCCOCCC#Cc2ccc3c(=O)c(C(=O)O)cn(C)c3c2)[C@H](C)[C@@H](O[C@@H]2O[C@H](C)C[C@H](N(C)C)[C@H]2O)[C@](C)(OC)C[C@@H](C)C(=O)[C@H](C)[C@H]2NC(=O)O[C@@]21C (hydrate or solvate) [MCX-190]
melting point: 157.9 to 158.8 °C

CC[C@H]1OC(=O)[C@H](C)[C@@H](OC(=O)NCCCOCCC#Cc2ccc3c(=O)c(C(=O)O)c[nH]c3c2)[C@H](C)[C@@H](O[C@@H]2O[C@H](C)C[C@H](N(C)C)[C@H]2O)[C@](C)(OC)C[C@@H](C)C(=O)[C@H](C)[C@H]2NC(=O)O[C@@]21C (hydrate or solvate) [95i]
melting point: 163.7 to 164.9 °C

CC[C@H]1OC(=O)[C@H](C)[C@@H](OC(=O)NCCCNCCC#Cc2ccc3c(=O)c(C(=O)O)cn(C4CC4)c3c2)[C@H](C)[C@@H](O[C@@H]2O[C@H](C)C[C@H](N(C)C)[C@H]2O)[C@](C)(OC)C[C@@H](C)C(=O)[C@H](C)[C@H]2NC(=O)O[C@@]21C [98c]
MIC ([10]; S. aureus 15B196, c-ermB): 256 µg/mL (≈ 257 µM) | MIC ([10]; S. aureus PU32, i-ermA): 4 µg/mL (≈ 4.02 µM) | MIC [2, 11]: 2 µg/mL (≈ 2.01 µM) | MIC [3, 12]: 0.5 µg/mL (≈ 0.503 µM) | MIC [3, 13]: 2 µg/mL (≈ 2.01 µM) | MIC ([3]; Streptococcus pneumoniae, S. pneumoniae PU09, mef, read-out: MIC): 0.5 µg/mL (≈ 0.503 µM) | MIC [6]: 64 µg/mL (≈ 64.4 µM) | melting point: 148.6 to 149.5 °C

CC[C@H]1OC(=O)[C@H](C)[C@@H](OC(=O)NCCCOCCC#Cc2ccc3c(=O)c(C(=O)O)cn(C4CC4)c3c2)[C@H](C)[C@@H](O[C@@H]2O[C@H](C)C[C@H](N(C)C)[C@H]2O)[C@](C)(OC)C[C@@H](C)C(=O)[C@H](C)[C@H]2NC(=O)O[C@@]21C (hydrate or solvate) [95c]
melting point: 163.6 to 163.9 °C
